Data set [1] deals with T1, Beta-glucuronidase (Escherichia coli (strain K12), UniProt P05804). The data set can be described thus: Inhibition of Escherichia coli beta-glucuronidase using p-nitrophenyl-beta-D-glucuronide as substrate.
Data set [2] can be described thus: Inhibition of Staphylococcus aureus beta-glucuronidase.
The nature of data set [3]: Inhibition of Clostridium perfringens beta-glucuronidase.
Data set [4] is described as follows: Inhibition of bacterial beta-glucuronidase. Also on record: species or system Bacteria.
Data set [5] concerns the target T2, Beta-glucuronidase (Homo sapiens) (UniProt P08236).
T2 sequence (whole entry): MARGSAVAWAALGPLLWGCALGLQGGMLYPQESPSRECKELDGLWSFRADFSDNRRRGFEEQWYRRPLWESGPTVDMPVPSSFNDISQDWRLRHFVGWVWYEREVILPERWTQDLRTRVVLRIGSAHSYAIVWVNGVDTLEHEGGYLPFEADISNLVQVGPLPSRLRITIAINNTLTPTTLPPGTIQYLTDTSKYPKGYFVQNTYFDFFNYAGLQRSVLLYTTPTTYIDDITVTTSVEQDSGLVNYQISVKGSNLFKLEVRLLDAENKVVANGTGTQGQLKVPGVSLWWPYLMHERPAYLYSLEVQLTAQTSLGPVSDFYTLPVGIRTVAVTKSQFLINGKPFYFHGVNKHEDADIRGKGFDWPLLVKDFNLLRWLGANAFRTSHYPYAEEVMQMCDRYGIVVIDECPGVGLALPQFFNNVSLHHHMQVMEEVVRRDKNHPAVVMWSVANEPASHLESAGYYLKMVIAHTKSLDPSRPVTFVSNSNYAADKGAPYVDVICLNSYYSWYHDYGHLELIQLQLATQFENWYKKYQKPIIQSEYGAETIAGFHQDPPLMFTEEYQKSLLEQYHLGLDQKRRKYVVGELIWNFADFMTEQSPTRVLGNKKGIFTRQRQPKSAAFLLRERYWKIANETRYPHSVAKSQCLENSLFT
As to the kind of experiment: Inhibition of beta-glucuronidase (unknown origin) at 1 mM relative to control.

Data set [6] in a line: Selectivity index, ratio of IC50 for beta-glucuronidase (unknown origin) to IC50 for Escherichia coli beta-glucuronidase.
A short description of data set [7]: Inhibition of bovine liver beta-glucuronidase. Also noted: species or system Bos taurus.
Data set [8] is described as follows: Inhibition of bovine liver beta-glucuronidase using 4-nitrophenyl beta-D-glucuronopyranoside as substrate preincubated for 30 mins followed by substrate addition measured after 10 to 20 mins by e Lineweaver-Burk plot analysis. Also on record: species or system Bos taurus.
The target of data set [9] is T2, Beta-glucuronidase (Homo sapiens). Particulars: 10 mg/ml.
Data set [10] can be described thus: Inhibition of Escherichia coli K-12 beta-glucuronidase using PNPG as substrate preincubated for 5 mins followed by substrate addition measured after 30 mins.
Data set [11] deals with T3, Beta-glucuronidase (Mus musculus) (UniProt P12265).
T3 sequence (whole entry): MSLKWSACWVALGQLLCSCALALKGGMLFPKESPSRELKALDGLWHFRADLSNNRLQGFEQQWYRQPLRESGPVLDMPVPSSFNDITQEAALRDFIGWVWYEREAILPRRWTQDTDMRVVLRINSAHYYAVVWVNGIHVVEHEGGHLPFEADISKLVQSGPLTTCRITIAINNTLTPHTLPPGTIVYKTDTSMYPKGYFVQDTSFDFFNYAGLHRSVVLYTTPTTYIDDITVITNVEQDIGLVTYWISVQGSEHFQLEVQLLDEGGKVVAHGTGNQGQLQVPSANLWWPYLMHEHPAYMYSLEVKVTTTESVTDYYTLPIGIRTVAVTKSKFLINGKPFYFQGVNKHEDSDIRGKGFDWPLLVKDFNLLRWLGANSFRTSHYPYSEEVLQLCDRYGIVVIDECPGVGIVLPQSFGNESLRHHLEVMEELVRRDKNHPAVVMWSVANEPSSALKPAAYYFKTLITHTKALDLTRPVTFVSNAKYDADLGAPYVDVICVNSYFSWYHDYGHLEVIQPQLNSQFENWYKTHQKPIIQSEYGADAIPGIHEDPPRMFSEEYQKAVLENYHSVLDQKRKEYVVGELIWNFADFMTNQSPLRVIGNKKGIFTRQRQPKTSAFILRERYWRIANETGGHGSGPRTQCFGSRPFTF
As to the kind of experiment: In-vivo inhibition of ICR mouse beta-glucuronidase at 20 mg/kg, sc after 10 weeks relative to DMH alone. It counts as functional, organism-based.

Data set [12] concerns the target T3, Beta-glucuronidase (Mus musculus). As to the kind of experiment: In-vivo inhibition of ICR mouse beta-glucuronidase at 60 mg/kg, sc after 10 weeks relative to DMH alone. The class given is functional, organism-based.
The nature of data set [13]: Inhibition of bovine liver beta-glucuronidase using p-nitrophenyl-beta-d-glucuronide as substrate after 30 mins by spectrophotometric analysis. Also on record: species or system Bos taurus.
Data set [14] is described as follows: Inhibition of bovine liver beta-glucuronidase using p-nitrophenyl-beta-D-glucuronide as substrate after 30 mins. Also noted: species or system Bos taurus.
Data set [15] addresses T4, Beta-glucuronidase (Mus musculus, UniProt P12265).
T4 sequence (P12265 whole entry): T3 sequence (whole entry)
As to the kind of experiment: In-vivo inhibition of beta-glucuronidase in BALB/CJ mouse at 10 ug administered as twice daily. It counts as functional.

Data set [16] in a line: Half life in BALB/CJ mouse at 10 ug administered as twice daily. The class given is ADME. The settings on record: in vivo.
Data set [17] addresses T5, Beta-glucuronidase (Homo sapiens, UniProt P08236).
T5 sequence (P08236 whole entry): T2 sequence (whole entry)
The data set can be described thus: Inhibition of beta-glucuronidase (unknown origin) using p-nitrophenyl-beta-d-glucuronide as substrate after 30 mins.

For data set [18], the target named is T1, Beta-glucuronidase. The data set can be described thus: Inhibition of Escherichia coli beta-glucuronidase.
The target of data set [19] is Beta-glucuronidase (Escherichia coli (strain K12)) (UniProt P05804). As to the kind of experiment: Inhibition of Escherichia coli beta-glucuronidase at 1 mM relative to control.
Sequence of Beta-glucuronidase (Escherichia coli (strain K12)) (P05804 whole entry, looked up): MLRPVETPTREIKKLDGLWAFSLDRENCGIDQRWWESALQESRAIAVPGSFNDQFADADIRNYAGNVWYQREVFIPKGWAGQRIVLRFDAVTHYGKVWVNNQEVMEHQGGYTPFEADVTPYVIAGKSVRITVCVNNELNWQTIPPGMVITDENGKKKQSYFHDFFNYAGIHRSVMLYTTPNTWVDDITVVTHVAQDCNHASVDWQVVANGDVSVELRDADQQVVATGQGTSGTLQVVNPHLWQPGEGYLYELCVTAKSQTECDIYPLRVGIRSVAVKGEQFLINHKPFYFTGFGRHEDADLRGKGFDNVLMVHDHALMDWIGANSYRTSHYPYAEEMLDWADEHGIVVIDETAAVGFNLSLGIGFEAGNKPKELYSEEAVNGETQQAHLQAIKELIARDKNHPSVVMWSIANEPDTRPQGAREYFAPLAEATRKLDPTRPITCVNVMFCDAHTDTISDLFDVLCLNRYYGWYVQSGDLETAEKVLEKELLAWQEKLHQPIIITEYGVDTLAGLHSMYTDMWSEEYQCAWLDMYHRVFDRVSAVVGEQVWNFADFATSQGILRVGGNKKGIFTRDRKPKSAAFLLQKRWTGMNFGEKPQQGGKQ
The target of data set [20] is T3, Beta-glucuronidase (Mus musculus). The data set can be described thus: In vivo inhibition of beta-glucuronidase in OF1 mouse at 10 mg/kg, po after 8 days relative to control. It counts as functional, organism-based.
Data set [21] can be described thus: Inhibition of bovine liver beta-glucuronidase using 4-nitrophenyl b-D-glucuronopyranoside as substrate after 30 mins. Also noted: species or system Bos taurus.

T1 sequence (P05804 whole entry): as the sequence (P05804 whole entry, looked up) above

Compound `CC1(C)CCC2(C(=O)O)CC[C@]3(C)C(=CC[C@@H]4[C@@]5(C)[C@H](O)C[C@H](O)[C@@](C)(CO)[C@@H]5CC[C@]43C)[C@@H]2C1` (stereo partly specified) came in with a half-maximal inhibitory concentration (IC50) against Beta-glucuronidase [1] of 63 µM.

Consider `c1nc(N2CCNCC2)c2sc3nc(N4CCOCC4)ccc3c2n1`, for which the IC50 worked out at 0.69 µM in data set [2] and 0.053 µM in data set [3]. In data set [4], `COc1ccc(-c2nc(O)c3ccccc3n2)cc1OC` had an IC50 of 1.9 µM.

On to `CCOc1ccccc1-c1nc2ccccc2c(=O)[nH]1`, for which, in data set [4], half-maximal inhibition (IC50) required 1.9 µM. `COc1ccc(C[C@@H]2CCC[C@@H]3[C@H](O)[C@@H](O)[C@H](CO)N23)cc1` yielded an inhibition in [5] of under 50%. Moreover, the Ratio IC50 in data set [6] is 7.

`O=C(O)[C@@H]1[C@@H](O)[C@H](O)[C@@H](O)c2nccn21`: the IC50 in [7] was 12 µM. This compound also came in with a Ki in [8] of 0.012 µM. Consider `O=C(O)c1ccccc1O`, for which the results for the inhibition in data set [5] and in data set [9] were 82% and 92.9%, respectively.

In data set [10], `O=c1cc(-c2ccc(O)c(O)c2)oc2cc(O)cc(O)c12` [LUTEOLIN] yielded an IC50 of 8.68 µM. In addition, the inhibition in data set [11] worked out at 14.9%; in data set [12] it was 21.3%. As to `Oc1ccccc1-c1nc2cc(Cl)cc(Cl)c2[nH]1`, the IC50 in data set [13] and in data set [14] was 4.48 µM each time. Consider `CCOc1ccc(NC(=S)N(CCO)Cc2cc3cc(C)cc(C)c3[nH]c2=O)cc1`, for which the 50% inhibitory concentration (IC50) against Beta-glucuronidase [15] stood at 0.164 µM. This compound gave a half-life in [16] of under 1 h. `CNc1nc2sc3c(N4CCNCC4)nnnc3c2c2c1CCCC2`: the IC50 in data set [2] amounted to 0.039 µM; in [3], 0.18 µM. For the compound `CC(=O)c1ccc(Nc2cc(C)nc3ccccc23)cc1`, on Beta-glucuronidase [17], the IC50 worked out at 4 µM.

Consider `CC(=O)N[C@H]1[C@@H](O)[C@H](O)[C@H](CO)N[C@@H]1Cc1ccccc1`, for which 90.7 µM corresponded to half-maximal inhibition against Beta-glucuronidase [18] (IC50). Moreover, in data set [19], the inhibition worked out at 37.2%.

Regarding `C[C@]12C=CC(=O)C=C1CC[C@H]1[C@@H]3C[C@@H](O)[C@](O)(C(=O)CO)[C@@]3(C)C[C@H](O)[C@@]12F`, the inhibition in data set [20] worked out at 94.1%.

In turn, `O=C(O)[C@@H]1[C@@H](O)[C@H](O)[C@@H](O)c2nnnn21` gave an IC50 in [21] of 25 µM. In data set [8], the Ki was found to be 0.025 µM.

Usually IC50 stands for the concentration at which inhibition is half-maximal. Low readings indicate inhibition by little substance, high ones a need for much substance. As a reminder, the inhibition is the change of the read-out against control, counted positive when it falls. Read a high inhibition as a response far below the control. As a reminder, the Ki is the equilibrium dissociation constant of an inhibitor or competing ligand from its target. A high value points to weaker binding. The term half-life denotes how long it takes for the measured level to halve.

(Values after ChEMBL document CHEMBL4616590, “Therapeutic significance of β-glucuronidase activity and its inhibitors: A review” (Eur J Med Chem, 2020).)
